Laboratory results as given in US20050175696A1, “Drug granule coatings that impart smear resistance during mechanical compression” (priority 2003, published 2005).
In brackets after ≈: the same amount, converted by molar mass.

Experiment: Equilibrium solubility of topiramate in de-ionized water and in aqueous surfactant solutions
Format: physicochemical
Method: The resulting solution saturated with the pharmaceutical agent is then filtered, typically under pressure through a 0.8-micron Millipore filter, and the concentration of the pharmaceutical agent in the solution is measured by any appropriate analytical method including gravimetric, ultraviolet spectrophometry, chromatography, and the like. The solubility of the pharmaceutical agent is measured at equilibrium.
A drug composition of the present invention was prepared as follows. Aqueous solutions of five surfactants were prepared. The selected surfactants were four grades of ethylene oxide/propylene oxide/ethylene oxide (LUTROL grades F127, F87, F 108, and F68) and PEG-40 stearate (MYRJ 52). Solutions were made at concentrations of 1, 5, and 15 weight percent. The aqueous surfactant blends solutions were chilled as necessary to promote complete dissolution of the surfactant prior to drug solubility studies.
The aqueous surfactant solutions were equilibrated to constant temperature in a 37° C. water bath. Then, neat topiramate drug was added slowly with stirring in about 10 mg increments to the surfactant solutions until no more drug dissolved. […] The resulting saturated solutions of drug were filtered through 0.8 micron filters and analyzed for drug concentration by refractive index chromatography. […]

- solubility (37 °C, thermodynamic from solid, de-ionized water, no temperature printed at the place, read-out: Solubility of neat topiramate in de-ionized water): ~12 mg/mL (≈ 35.4 mM)
- Topiramate solubility in water in the presence of surfactant, compared to control without surfactant (LUTROL F127, F87, F108, F68 and MYRJ 52 solutions at 1, 5 and 15 weight percent, 37° C.): increased by each surfactant
SMILES: CC1(C)O[C@@H]2[C@@H](CO[C@@]3(COS(N)(=O)=O)OC(C)(C)O[C@@H]23)O1 [topiramate]
